The subject of data set [1] is Myzus persicae (Green peach aphid). Kind of data set: Myzus persicae test, roots of infested pea seedlings placed in test solution. It is filed as in vivo. The following applies: 144 h, read-out: control of Myzus persicae. The method, then:
(§1) This Example illustrates the pesticidal/insecticidal properties of compounds of formula (I). The compounds numbers are those of the characterising data tables. Test against were performed as follows:
Myzus persicae (Green peach aphid): Roots of pea seedlings, infested with an aphid population of mixed ages, were placed directly in the test solutions of 24 ppm. 6 days after introduction, samples were checked for mortality.

The test system is the same in data set [2]. Kind of data set: Myzus persicae sunflower leaf disc spray test. It is filed as in vivo. The following applies: foliar, 144 h, read-out: control of Myzus persicae. The procedure:
as §1
Heliothis virescens (Tobacco budworm): Eggs (0-24 h old) were placed in 24-well microtiter plate on artificial diet and treated with test solutions at an application rate of 200 ppm by pipetting. After an incubation period of 4 days, samples were checked for egg mortality, larval mortality, and growth regulation. The following compounds gave at least 80% control of Heliothis virescens: 1.004, 1.005, 1.012, 1.016, 4.001, 31.016, 31.018. Myzus persicae (Green peach aphid): Sunflower leaf discs were placed on agar in a 24-well microtiter plate and sprayed with test solutions at an application rate of 200 ppm. After drying, the leaf discs were infested with an aphid population of mixed ages. After an incubation period of 6 DAT, samples were checked for mortality.

Where [3] appears, read: roots of pea seedlings in test solutions of 24 ppm, mixed ages, mortality after 6 days.
Where [4] appears, read: sunflower leaf discs sprayed at 200 ppm, mixed ages, mortality at 6 DAT.

Molecules are shown by their SMILES. Like-named read-outs stand apart in the source and are kept apart here.

Usually melting point stands for the temperature of the solid-liquid transition. The molecule `COc1ccc2c(c1)CCC2NC1=NCCO1` (stereo not drawn) returned a melting point of 115 to 118 °C.
Consider `COc1cc2c(cc1OC)C(NC1=NCCO1)CC2` (stereo not drawn), for which the melting point fell in the range of 109 to 113 °C.
On to `c1ccc(C2CC(NC3=NCCO3)c3ccccc32)cc1` (stereo not drawn), for which the melting point was > 120 °C (dec.).
`O=C(NCCCl)NC1CCc2ccccc21` (racemic) [Compound 31.017]: the pest or weed control at 24 ppm in data set [1] was no less than 80%. The pest or weed control at 200 ppm in data set [2] was no less than 80%.
Take `OC1Cc2ccccc2C1NC1=NCCO1` (stereo not drawn) [1.013]: the melting point lay in the range of 139 to 141 °C.
Still for that read-out and setting: the result for `OC1Cc2ccccc2C1NC1=NCCO1` (stereo not drawn) [1.014] reads 140 to 142 °C.
`CC1Cc2ccccc2C1NC1=NCCO1` (stereo not drawn) [Compound 1.001]: the pest or weed control at 24 ppm in data set [1] (setting [3]) is no less than 80%.
Consider `CC1CC(NC2=NCCO2)c2ccccc21` (stereo not drawn) [Compound 1.002], for which the pest or weed control at 24 ppm in data set [1] (setting [3]) was no less than 80%. Further, the pest or weed control at 200 ppm in data set [2] (setting [4]) is no less than 80%.
With `Cc1cccc2c1CCC2NC1=NCCO1` (stereo not drawn) [Compound 1.004], in data set [1] (setting [3]), the pest or weed control at 24 ppm was no less than 80%. Also, the pest or weed control at 200 ppm in data set [2] (setting [4]) was no less than 80%.
For the molecule `Fc1ccc2c(c1)CCC2NC1=NCCO1` (stereo not drawn) [Compound 1.005], the pest or weed control at 200 ppm in data set [2] (setting [4]) was no less than 80%.
Same read-out and setting: the value for `Brc1ccc2c(c1)CCC2NC1=NCCO1` (stereo not drawn) [Compound 1.006] was no less than 80%; that for `Clc1ccc2c(c1)CCC2NC1=NCCO1` (stereo not drawn) [Compound 1.007] was no less than 80%; that for `COc1ccc2c(c1)C(NC1=NCCO1)CC2` (stereo not drawn) [Compound 1.009] was no less than 80%.
Take `Cc1ccc2c(c1)CCC2NC1=NCCO1` (stereo not drawn) [Compound 1.010]: the pest or weed control at 24 ppm in data set [1] (setting [3]) is no less than 80%. Further, the pest or weed control at 200 ppm in data set [2] (setting [4]) was no less than 80%.
`Cc1ccc2c(c1)C(NC1=NCCO1)CC2` (stereo not drawn) [Compound 1.012, (4,5-Dihydro-oxazol-2-yl)-(6-methyl-indan-1-yl)-amine]: the pest or weed control at 24 ppm in data set [1] (setting [3]) was no less than 80%. The pest or weed control at 200 ppm in data set [2] (setting [4]) was no less than 80%.
`CC1Cc2ccccc2C1NC1=NCCO1` (stereo not drawn) [Compound 1.015]: the pest or weed control at 200 ppm in data set [2] (setting [4]) was no less than 80%.
Consider `Fc1cccc2c1CCC2NC1=NCCO1` (stereo not drawn) [Compound 1.016], for which the pest or weed control at 24 ppm in data set [1] (setting [3]) was no less than 80%. Further, the pest or weed control at 200 ppm in data set [2] (setting [4]) was no less than 80%.
For the molecule `c1ccc2c(c1)CCC2NC1=NCCO1` (stereo not drawn) [Compound 1.017], in data set [1] (setting [3]), the pest or weed control at 24 ppm was no less than 80%. Also, in data set [2] (setting [4]), the pest or weed control at 200 ppm was no less than 80%.
On to `CC1Cc2ccccc2C1NC(=O)NCCCl` (stereo not drawn) [Compound 31.001], for which the pest or weed control at 24 ppm in data set [1] is no less than 80%. Moreover, the pest or weed control at 200 ppm in data set [2] is no less than 80%.
Consider `CC1CC(NC(=O)NCCCl)c2ccccc21` (stereo not drawn) [Compound 31.002], for which the pest or weed control at 24 ppm in data set [1] was no less than 80%. In data set [2], the pest or weed control at 200 ppm was no less than 80%.
`O=C(NCCCl)NC1CCc2c(F)cccc21` (stereo not drawn) [Compound 31.016]: in data set [1], the pest or weed control at 24 ppm is no less than 80%. In addition, in data set [2], the pest or weed control at 200 ppm is no less than 80%.
In the case of `O=C(NCCCl)NC1CCc2ccccc21` (stereo not drawn) [Compound 31.018], the pest or weed control at 24 ppm in data set [1] is no less than 80%. Besides, the pest or weed control at 200 ppm in data set [2] is no less than 80%.

The values above are taken from US20100280085A1, “CHEMICAL COMPOUNDS” (SYNGENTA CROP PROTECTION, INC., priority 2006, published 2010).
